Values after ≈ are worked out from the molar mass of the structure shown. Where two headings read alike, the source gives them in different places.

One may read the melting point as the temperature, or range, at which the solid turns liquid.

Data set [1] relates to cork oak (Quercus suber) cuttings. To be noted: literature; cited from earlier work.
Data set [2] concerns Flavobacterium columnare ALM-00-173. Put plainly: rapid 96-well microplate antibacterial bioassay against F. columnare. It is filed as cell-based. To be noted: F. columnare ALM-00-173; for IC50: ALM00173, 24 h. An excerpt:
An isolate of F. columnare [isolate ALM-00-173 (genomovar II)] was obtained from Dr. Covadonga Arias (School of Fisheries, Aquaculture and Aquatic Sciences, Auburn University, Auburn, Ala.). In order to assure purity, cultures of F. columnare ALM-00-173 were maintained separately on modified Shieh (MS) agar plates (pH 7.2-7.4) (Decostere, A., et al., Laboratory Animals, 36: 396-402 (2003)). Prior to conducting the bioassay, colonies of F. columnare ALM-00-173 were used to prepare the assay culture material by culturing in 75 mL of MS broth for 24 h at 29±1° C. at 150 rpm on a rotary shaker (model C24KC; New Brunswick Scientific, Edison, N.J.). After overnight incubation, a 0.5 McFarland standard of F. columnare ALM-00-173 culture material was prepared by transferring cells from the broth culture to fresh MS broth (Schrader, K. K., and M. D. Harries, Aquaculture Research, 37: 928-937 (2006)).
(§1) The pure test compounds (−)-diplopyrone and (−)-diplopyrone acetate were dissolved in technical grade 100% methanol while (−)-diplopyrone nitrile was dissolved in technical grade 100% acetone. The three test compounds were evaluated for antibacterial activity against F. columnare ALM-00-173 and E. ictaluri S02-1039 using a rapid 96-well microplate bioassay and following previous procedures (Schrader and Harries 2006). Florfenicol was included as a positive drug control. Control wells (no test material added) were also included in each assay. Final test concentrations of compounds and florfenicol were 0.01, 0.1, 1.0, 10.0, 100.0, and 1000.0 μM. Three replications were used for each dilution of each test compound and drug control, and final results were converted to units of mg/L to allow comparison with previous studies.
(§2) The 24-h 50% inhibition concentration (IC50) and minimum inhibitory concentration (MIC) were determined using sterile 96-well (flat bottom) polystyrene microplates (Corning Costar Corp., Acton, Mass.) for (−)-diplopyrone and (−)-diplopyrone acetate. In order to prevent solvent interaction with polystyrene, sterile 96-well (flat bottom) quartz microplates (Hellma Cells, Inc., Forest Hills, N.Y.) were used for (−)-diplopyrone nitrile. Initially, dissolved test compounds or florfenicol were micropippeted separately into individual microplate wells (10 μL/well), and the solvent was allowed to completely evaporate before 0.5 MacFarland bacterial culture was added to the microplate wells (200 μL/well). Microplates were incubated at 29±1° C. (VWR model 2005 incubator; Sheldon Manufacturing, Inc., Cornelius, Oreg.). A microplate photometer (SpectraCount, Packard Instrument Company, Meriden, Conn.) was used to measure the absorbance (630 nm) of the microplate wells at time 0 and 24-h. Two replicates of each microplate bioassay were made. Cell viability of F. columnare ALM-00-173 and E. ictaluri S02-1039 was determined at the completion of the growth bioassay for each test compound using the yellow dye 3(4,5-dimethylthiazol-2-yl)-2,5-diphenyl tetrazolium bromide (MTT) and previously outlined procedures (Schrader and Harries 2006). In addition, the minimum bactericidal concentration (MBC) was determined for very active compounds (Schrader and Harries 2006).
(§3) The means and standard errors of absorbance measurements were calculated, graphed, and compared to controls to determine the MIC, 24-h IC50, and MTT 24-h IC50 for each test compound. The 24-h IC50 and MIC results for each test compound were divided by the respective 24-h IC50 and MIC results obtained for the positive control florfenicol to determine the relative-to-drug-control florfenicol (RDCF) values.

For data set [3], the system named is Lemna paucicostata (L.) Hegelm. (duckweed). Put plainly: duckweed phytotoxicity bioassay (growth by frond area). In kind it is in vivo. To be noted: for visual symptoms: 7 days of exposure, FIG. 7. On the procedure:
Pyranopyran (2), pyranopyran acetate (3), and pyranopyran nitrile (4) were also evaluated for phytotoxic activity using the aquatic plant Lemna paucicostata (L.) Hegelm. (duckweed). Dose-response curves from the aquatic plant Lemna paucicostata (L.) Hegelm. (duckweed) were obtained from experiments conducted. Duckweed was grown and treated as described by Michel et al. (Michel, A., et al., Environ. Toxicol. Chem., 23: 1074-1079 (2004)) with slight modifications. Duckweed stocks were cultivated from single L. paucicostata colonies (an aggregate of one mother and two daughter fronds to assure genetic uniformity) in Hoagland's No. 2 basal salt mixture with added iron (1000× Fe-EDTA solution, pH 5.5) in sterile trays. The plants were grown in a growth chamber under the following controlled conditions: continuous light at 26° C. and 120 μmol·s^−1·m^−2 photosynthetically active radiation. Hoagland solution was changed every two days. Bioassays were conducted in sterile […] (Falcon, Corning Life Science). Each well contained 5 mL with 1% EtOH with or without test compounds. Test compounds were dissolved in EtOH. A graphic template of the six-well plates was used for LemnaTec (LemnaTec, Würselen, Germany) image analysis software. Treatment plates, with two three-frond plants of the approximately same size per well, were incubated during 7 days of treatment. Each treatment was replicated three times. IC50 values (concentration of test compound that inhibits growth 50%) were determined with R statistics software. Effects on growth are evaluated by measuring area of the plant fronds with image analysis.

The test system of data set [4] is Edwardsiella ictaluri S02-1039. Put plainly: rapid 96-well microplate antibacterial bioassay against E. ictaluri. In kind it is cell-based. To be noted: E. ictaluri S02-1039; for MIC RDCF (relative-to-drug-control florfenicol): MIC divided by MIC of florfenicol; for IC50: S021039, 24 h.
Text: An isolate of E. ictaluri (isolate S02-1039) was obtained from a person (formerly with the College of Veterinary Medicine, Mississippi State University, Stoneville, Miss.). In order to assure purity, cultures of E. ictaluri S02-1039 were maintained on 3.8% Mueller-Hinton (MH) agar plates (pH 7.3) (Becton, Dickinson and Company, Sparks, Md.). Prior to conducting the bioassay, colonies of E. ictaluri S02-1039 were used to prepare assay culture material by aseptically transferring bacterial cells from colonies to 45 mL of 3.8% MH broth to form a bacterial cell density of 0.5 McFarland standard.
as §1, §2, §3

The test system of data set [5] is Lemna paucicostata (L.) Hegelm. (duckweed). To be noted: commercial herbicides; Michel et al. 2004; read-out: IC50 in the same duckweed bioassay; cited from earlier work.

On to `C[C@H](O)[C@H]1C=C[C@@H]2OC(=O)C=C[C@@H]2O1` [Diplopyrone, 6-[(1S)-1-hydroxyethyl]-2,4a(S),6(R),8a(S)-tetrahydropyrano-[3,2-b]-pyran-2-one], for which the phytotoxic effect result in data set [1] is “causes necrosis and wilting”.
As to `N#C[C@@H]1C=C[C@H]2OC(=O)C=C[C@H]2O1` [Pyranopyran nitrile (4), (4aR,6S,8aR)-6-Cyano-6,8a-dihydropyrano-[3,2-b]pyran-2(4aH)-one], the melting point is 162 to 164 °C. The “MIC (minimum inhibitory concentration)” value in data set [2] (24 h, SE in parentheses) is 17.7 (0) mg/L. Besides, the “MIC RDCF (relative-to-drug-control florfenicol)” value in data set [2] (MIC divided by MIC of florfenicol) is reported as 49.2 (0). The IC50 in data set [2] (Flavobacterium columnare, absorbance 630 nm, SE in parentheses, read-out: 24-h IC50 (50% inhibition concentration)) was determined as 7.5 ± 0.5 µg/mL (≈ 42.3 µM). Also, in data set [2] (Flavobacterium columnare, tetrazolium bromide dye MTT, read-out: MTT 24-h IC50 (cell viability)), the IC50 stood at 16.8 ± 0.9 µg/mL (≈ 94.8 µM). The MIC in data set [2] (Flavobacterium columnare, ALM00173, 24 h, SE in parentheses, read-out: MIC (minimum inhibitory concentration)) was 17.7 µg/mL (≈ 99.9 µM). In addition, the IC50 in data set [3] (Lemna aequinoctialis, 144 h, Lemna paucicostata growth, frond area, FIG. 6, 6 days of exposure, read-out: IC50 (concentration that inhibits growth 50%)) is below 1000 nM. Further, the visual symptoms entry in data set [3] (at 33 μM and higher) is “some of the plants had no chlorophyll and were necrotic”. For the same molecule, the visual symptoms result in data set [3] (at 100 μM) is “many of the plants were devoid of chlorophyll and necrotic”. Besides, the “MIC (minimum inhibitory concentration)” value in data set [4] (24 h, SE in parentheses) is listed as 0.002 (0) mg/L. For the same molecule, the “MIC RDCF (relative-to-drug-control florfenicol)” value in data set [4] is reported as 0.5 (0). The “MIC RDCF (relative-to-drug-control florfenicol)” value in data set [4] (listed as pyranopyran nitrile (4)) is recorded as 0.5±0. Further, in data set [4] (Edwardsiella ictaluri, absorbance 630 nm, SE in parentheses, read-out: 24-h IC50 (50% inhibition concentration)), the IC50 was 7.7 ± 1.2 µg/mL (≈ 43.5 µM). In addition, the IC50 in data set [4] (Edwardsiella ictaluri, tetrazolium bromide dye MTT, read-out: MTT 24-h IC50 (cell viability)) was determined as 64.6 µg/mL (≈ 365 µM). In addition, in data set [4] (Edwardsiella ictaluri, S021039, 24 h, SE in parentheses, read-out: MIC (minimum inhibitory concentration)), the MIC was 0.002 µg/mL (≈ 0.0113 µM). For the same molecule, the MBC in data set [4] (Edwardsiella ictaluri, S021039, bound is the highest test concentration, read-out: minimum bactericidal concentration (MBC)) was above 177 µg/mL.
On to `CCc1cnc(C2=NC(C)(C(C)C)C(=O)N2)c(C(=O)O)c1` (centres unmarked) [imazethapyr], for which the IC50 in data set [5] was 930 nM.
`CC(C)c1ccc(NC(=O)N(C)C)cc1` [isoproturon]: in data set [5], the IC50 was 350 nM.
Consider `CCC(CC)Nc1c([N+](=O)[O-])cc(C)c(C)c1[N+](=O)[O-]` [pendimethalin], for which the IC50 in data set [5] was 380 nM.

These data come from US11191273B2, “Methods of making pyranopyrans such as pyranopyran nitrile and methods of using pyranopyrans such as pyranopyran nitrile” (The United States of America, as Represented by the …, priority 2018, dated 2021).
